Measurements: ChEMBL document CHEMBL2412996, “Increase of anti-HIV activity of C-peptide fusion inhibitors using a bivalent drug design approach” (Bioorg Med Chem Lett, 2013)
pIC50: −log10 of the molar value. Numbered stars: 1 amine (or outer) side, 2 acyl side, 3 side chain; on linkers, the order of the positions; unused ones are H or OH. Square brackets hold non-standard residues; d marks the D form. Peptide text beside a SMILES is read from it. * marks the point of attachment. X2 = CC(=O)N[C@@H](CS)C(=O)OCCOCCOCCN([C@@H](Cc1c[nH]c2ccccc12)C(=O)[*:2])[*:1]; X1 = CC(=O)N[C@@H](CS)C(=O)OCCOCCOCCNCCC(=O)*; Ahx = NCCCCCC(=O)O; βAla = NCCC(=O)O

Key:
[1] = Inhibition of HIV1 HXB2 gp160-mediated cell-cell fusion between viral envelope expressing human HL2/3 cells to human TZM-bl cells expressing CD4, tat, and rev by luciferase reporter gene assay; assay type: cell-based; settings: Human immunodeficiency virus 1, HXB2, TZM-bl
[2] = tested on: TZM-bl; experiment: Inhibition of HIV1 HXB2 gp160-mediated cell-cell fusion between viral envelope expressing human HL2/3 cells to human TZM-bl cells expressing CD4, tat, and rev by luciferase reporter gene assay relative to C29; assay type: cell-based; settings: Human immunodeficiency virus 1

Structure (SMILES)	pIC50 [1]	Ratio [2]
CC[C@H](C)[C@H](NC(=O)[C@H](CC(C)C)NC(=O)[C@H](CO)NC(=O)[C@H](Cc1cnc[nH]1)NC(=O)[C@@H](NC(=O)[C@H](CC(C)C)NC(=O)[C@H](CO)NC(=O)[C@@H](NC(=O)[C@H](Cc1ccc(O)cc1)NC(=O)[C@H](CC(N)=O)NC(=O)[C@H](CC(N)=O)NC(=O)[C@@H](NC(=O)[C@H](CCC(=O)O)NC(=O)[C@H](CCCNC(=N)N)NC(=O)[C@H](CC(=O)O)NC(=O)[C@H](Cc1c[nH]c2ccccc12)NC(=O)[C@H](CCC(=O)O)NC(=O)[C@H](CCSC)NC(=O)[C@H](Cc1c[nH]c2ccccc12)NC(=O)[C@H](CS)NC(C)=O)[C@@H](C)CC)[C@@H](C)O)[C@@H](C)CC)C(=O)N[C@@H](CCC(=O)O)C(=O)N[C@@H](CCC(=O)O)C(=O)N[C@@H](CO)C(=O)N[C@@H](CCC(N)=O)C(=O)N[C@@H](CC(N)=O)C(=O)N[C@@H](CCC(N)=O)C(=O)N[C@@H](CCC(N)=O)C(=O)N[C@@H](CCC(=O)O)C(=O)N[C@@H](CCCCN)C(=O)N[C@@H](CC(N)=O)C(=O)O (Ac-CWMEWDREINNYTSLIHSLIEESQNQQEKN-OH)	7.38	2.84
CC[C@H](C)[C@H](NC(=O)[C@H](CC(C)C)NC(=O)[C@H](CO)NC(=O)[C@H](Cc1cnc[nH]1)NC(=O)[C@@H](NC(=O)[C@H](CC(C)C)NC(=O)[C@H](CO)NC(=O)[C@@H](NC(=O)[C@H](Cc1ccc(O)cc1)NC(=O)[C@H](CC(N)=O)NC(=O)[C@H](CC(N)=O)NC(=O)[C@@H](NC(=O)[C@H](CCC(=O)O)NC(=O)[C@H](CCCNC(=N)N)NC(=O)[C@H](CC(=O)O)NC(=O)[C@H](Cc1c[nH]c2ccccc12)NC(=O)[C@H](CCC(=O)O)NC(=O)[C@H](CCSC)NC(=O)[C@H](Cc1c[nH]c2ccccc12)NC(=O)CCCCCNC(=O)[C@H](CS)NC(C)=O)[C@@H](C)CC)[C@@H](C)O)[C@@H](C)CC)C(=O)N[C@@H](CCC(=O)O)C(=O)N[C@@H](CCC(=O)O)C(=O)N[C@@H](CO)C(=O)N[C@@H](CCC(N)=O)C(=O)N[C@@H](CC(N)=O)C(=O)N[C@@H](CCC(N)=O)C(=O)N[C@@H](CCC(N)=O)C(=O)N[C@@H](CCC(=O)O)C(=O)N[C@@H](CCCCN)C(=O)N[C@@H](CC(N)=O)C(=O)O (Ac-C[Ahx]WMEWDREINNYTSLIHSLIEESQNQQEKN-OH)	7.31	2.41
CC[C@H](C)[C@H](NC(=O)[C@H](CC(C)C)NC(=O)[C@H](CO)NC(=O)[C@H](Cc1cnc[nH]1)NC(=O)[C@@H](NC(=O)[C@H](CC(C)C)NC(=O)[C@H](CO)NC(=O)[C@@H](NC(=O)[C@H](Cc1ccc(O)cc1)NC(=O)[C@H](CC(N)=O)NC(=O)[C@H](CC(N)=O)NC(=O)[C@@H](NC(=O)[C@H](CCC(=O)O)NC(=O)[C@H](CCCNC(=N)N)NC(=O)[C@H](CC(=O)O)NC(=O)[C@H](Cc1c[nH]c2ccccc12)NC(=O)[C@H](CCC(=O)O)NC(=O)[C@H](CCSC)NC(=O)[C@H](Cc1c[nH]c2ccccc12)NC(=O)CCNC(=O)[C@H](CS)NC(C)=O)[C@@H](C)CC)[C@@H](C)O)[C@@H](C)CC)C(=O)N[C@@H](CCC(=O)O)C(=O)N[C@@H](CCC(=O)O)C(=O)N[C@@H](CO)C(=O)N[C@@H](CCC(N)=O)C(=O)N[C@@H](CC(N)=O)C(=O)N[C@@H](CCC(N)=O)C(=O)N[C@@H](CCC(N)=O)C(=O)N[C@@H](CCC(=O)O)C(=O)N[C@@H](CCCCN)C(=O)N[C@@H](CC(N)=O)C(=O)O (Ac-C[βAla]WMEWDREINNYTSLIHSLIEESQNQQEKN-OH)	7.71	6.01
CC[C@H](C)[C@H](NC(=O)[C@H](CC(C)C)NC(=O)[C@H](CCC(=O)O)NC(=O)[C@H](CCC(=O)O)NC(=O)[C@@H](NC(=O)[C@H](CCCCN)NC(=O)[C@H](CCCCN)NC(=O)[C@@H](NC(=O)[C@H](Cc1ccc(O)cc1)NC(=O)[C@H](CCC(=O)O)NC(=O)[C@H](CCC(=O)O)NC(=O)[C@@H](NC(=O)[C@H](CCCCN)NC(=O)[C@H](CCCCN)NC(=O)[C@H](CC(=O)O)NC(=O)[C@H](Cc1c[nH]c2ccccc12)NC(=O)[C@H](CCC(=O)O)NC(=O)[C@H](CCC(=O)O)NC(=O)[C@H](Cc1c[nH]c2ccccc12)NC(C)=O)[C@@H](C)CC)[C@@H](C)O)[C@@H](C)CC)C(=O)N[C@@H](CCCCN)C(=O)N[C@@H](CCCCN)C(=O)N[C@@H](CO)C(=O)O (Ac-WEEWDKKIEEYTKKIEELIKKS-OH)	6.46	
CC[C@H](C)[C@H](NC(=O)[C@H](CC(C)C)NC(=O)[C@H](CO)NC(=O)[C@H](Cc1cnc[nH]1)NC(=O)[C@@H](NC(=O)[C@H](CC(C)C)NC(=O)[C@H](CO)NC(=O)[C@@H](NC(=O)[C@H](Cc1ccc(O)cc1)NC(=O)[C@H](CC(N)=O)NC(=O)[C@H](CC(N)=O)NC(=O)[C@@H](NC(=O)[C@H](CCC(=O)O)NC(=O)[C@H](CCCNC(=N)N)NC(=O)[C@H](CC(=O)O)NC(=O)[C@H](Cc1c[nH]c2ccccc12)NC(=O)[C@H](CCC(=O)O)NC(=O)[C@H](CCSC)NC(=O)[C@H](Cc1c[nH]c2ccccc12)NC(C)=O)[C@@H](C)CC)[C@@H](C)O)[C@@H](C)CC)C(=O)N[C@@H](CCC(=O)O)C(=O)N[C@@H](CCC(=O)O)C(=O)N[C@@H](CO)C(=O)O (Ac-WMEWDREINNYTSLIHSLIEES-OH)	5.91	
CC[C@H](C)[C@H](NC(=O)[C@H](CC(C)C)NC(=O)[C@H](CO)NC(=O)[C@H](Cc1cnc[nH]1)NC(=O)[C@@H](NC(=O)[C@H](CC(C)C)NC(=O)[C@H](CO)NC(=O)[C@@H](NC(=O)[C@H](Cc1ccc(O)cc1)NC(=O)[C@H](CC(N)=O)NC(=O)[C@H](CC(N)=O)NC(=O)[C@@H](NC(=O)[C@H](CCC(=O)O)NC(=O)[C@H](CCCNC(=N)N)NC(=O)[C@H](CC(=O)O)NC(=O)[C@H](Cc1c[nH]c2ccccc12)NC(=O)[C@H](CCC(=O)O)NC(=O)[C@H](CCSC)NC(=O)[C@H](Cc1c[nH]c2ccccc12)NC(C)=O)[C@@H](C)CC)[C@@H](C)O)[C@@H](C)CC)C(=O)N[C@@H](CCC(=O)O)C(=O)N[C@@H](CCC(=O)O)C(=O)N[C@@H](CO)C(=O)N[C@@H](CCC(N)=O)C(=O)N[C@@H](CC(N)=O)C(=O)N[C@@H](CCC(N)=O)C(=O)N[C@@H](CCC(N)=O)C(=O)N[C@@H](CCC(=O)O)C(=O)N[C@@H](CCCCN)C(=O)N[C@@H](CC(N)=O)C(=O)O (Ac-WMEWDREINNYTSLIHSLIEESQNQQEKN-OH)	6.93	
CC[C@H](C)[C@H](NC(=O)[C@H](CC(C)C)NC(=O)[C@H](CO)NC(=O)[C@H](Cc1cnc[nH]1)NC(=O)[C@@H](NC(=O)[C@H](CC(C)C)NC(=O)[C@H](CO)NC(=O)[C@@H](NC(=O)[C@H](Cc1ccc(O)cc1)NC(=O)[C@H](CC(N)=O)NC(=O)[C@H](CC(N)=O)NC(=O)[C@@H](NC(=O)[C@H](CCC(=O)O)NC(=O)[C@H](CCCNC(=N)N)NC(=O)[C@H](CC(=O)O)NC(=O)[C@H](Cc1c[nH]c2ccccc12)NC(=O)[C@H](CCC(=O)O)NC(=O)[C@H](CCSC)NC(=O)[C@H](Cc1c[nH]c2ccccc12)NC(C)=O)[C@@H](C)CC)[C@@H](C)O)[C@@H](C)CC)C(=O)N[C@@H](CCC(=O)O)C(=O)N[C@@H](CCC(=O)O)C(=O)N[C@@H](CO)C(=O)N[C@@H](CCC(N)=O)C(=O)N[C@@H](CC(N)=O)C(=O)N[C@@H](CCC(N)=O)C(=O)N[C@@H](CCC(N)=O)C(=O)N[C@@H](CCC(=O)O)C(=O)N[C@@H](CCCCN)C(=O)N[C@@H](CC(N)=O)C(=O)NCCCCCC(=O)N[C@@H](CS)C(=O)O (Ac-WMEWDREINNYTSLIHSLIEESQNQQEKN[Ahx]C-OH)	6.69	0.58
CC[C@H](C)[C@H](NC(=O)[C@H](CC(C)C)NC(=O)[C@H](CO)NC(=O)[C@H](Cc1cnc[nH]1)NC(=O)[C@@H](NC(=O)[C@H](CC(C)C)NC(=O)[C@H](CO)NC(=O)[C@@H](NC(=O)[C@H](Cc1ccc(O)cc1)NC(=O)[C@H](CC(N)=O)NC(=O)[C@H](CC(N)=O)NC(=O)[C@@H](NC(=O)[C@H](CCC(=O)O)NC(=O)[C@H](CCCNC(=N)N)NC(=O)[C@H](CC(=O)O)NC(=O)[C@H](Cc1c[nH]c2ccccc12)NC(=O)[C@H](CCC(=O)O)NC(=O)[C@H](CCSC)NC(=O)[C@H](Cc1c[nH]c2ccccc12)NCCOCCOCCOC(=O)[C@H](CS)NC(C)=O)[C@@H](C)CC)[C@@H](C)O)[C@@H](C)CC)C(=O)N[C@@H](CCC(=O)O)C(=O)N[C@@H](CCC(=O)O)C(=O)N[C@@H](CO)C(=O)N[C@@H](CCC(N)=O)C(=O)N[C@@H](CC(N)=O)C(=O)N[C@@H](CCC(N)=O)C(=O)N[C@@H](CCC(N)=O)C(=O)N[C@@H](CCC(=O)O)C(=O)N[C@@H](CCCCN)C(=O)N[C@@H](CC(N)=O)C(=O)O (H-[X2]MEWDREINNYTSLIHSLIEESQNQQEKN-OH)	7.81	7.69
CC[C@H](C)[C@H](NC(=O)[C@H](CC(C)C)NC(=O)[C@H](CO)NC(=O)[C@H](Cc1cnc[nH]1)NC(=O)[C@@H](NC(=O)[C@H](CC(C)C)NC(=O)[C@H](CO)NC(=O)[C@@H](NC(=O)[C@H](Cc1ccc(O)cc1)NC(=O)[C@H](CC(N)=O)NC(=O)[C@H](CC(N)=O)NC(=O)[C@@H](NC(=O)[C@H](CCC(=O)O)NC(=O)[C@H](CCCNC(=N)N)NC(=O)[C@H](CC(=O)O)NC(=O)[C@H](Cc1c[nH]c2ccccc12)NC(=O)[C@H](CCC(=O)O)NC(=O)[C@H](CCSC)NC(=O)[C@H](Cc1c[nH]c2ccccc12)NC(=O)CCNCCOCCOCCOC(=O)[C@H](CS)NC(C)=O)[C@@H](C)CC)[C@@H](C)O)[C@@H](C)CC)C(=O)N[C@@H](CCC(=O)O)C(=O)N[C@@H](CCC(=O)O)C(=O)N[C@@H](CO)C(=O)N[C@@H](CCC(N)=O)C(=O)N[C@@H](CC(N)=O)C(=O)N[C@@H](CCC(N)=O)C(=O)N[C@@H](CCC(N)=O)C(=O)N[C@@H](CCC(=O)O)C(=O)N[C@@H](CCCCN)C(=O)N[C@@H](CC(N)=O)C(=O)O (X1-WMEWDREINNYTSLIHSLIEESQNQQEKN-OH)	7.83	8.08
